# Assay results from article PMC11530130, “Peripherally restricted PICK1 inhibitor mPD5 ameliorates pain behaviors in murine inflammatory and neuropathic pain models” (JCI Insight, 2024).
# Where “and” joins values, the source holds several entries; their conditions need not be identical. Equal entries are not always repeated.
# Test system: mice, spared nerve injury (SNI) model
# Test: SNI model of neuropathic pain, von Frey, single s.c. dose, male mice day 7
# Format: in vivo, mouse
# Procedure: Induction of neuropathic pain (SNI model).
# The initial SNI pain experiment (Figure 4A) was performed by Phenotype Expertise, Marseilles, France – Pain and CNS behaviour CRO under supervision of Stéphane Gaillard, PhD (CEO). Surgery was performed on 8-week-old C57BL/6J male mice (Charles River). The spared nerve injury surgery was performed on anaesthetized mice with a buprenorphine […]
# solution (0.05 mg/kg) injected s.c. 30 min before surgery (10 μL/g). For surgery, mice were anaesthetised with ketamine (100 mg/kg, i.p.) and xylazine (10 mg/kg, i.p.) (volume 10 µL/g) with 100 μL of 1% xylocaine solution infiltrated at the site of the incision. The distal trifurcation of the sciatic nerve was identified, and the tibial and common peroneal branches were ligated with polypropylene nonabsorbable 6-0 sutures (Ethicon) and 1 mm was cut out, leaving the sural branch intact. The wound was closed with sutures, and the animals were allowed to recover and returned to their cages. Two subcutaneous injections of buprenorphine (0.05 mg/kg) were performed with an 8 to 12 hours delay decreasing pain due to the surgery […]
# The remaining SNI pain experiments were performed in-house using the following procedure.
# SNI surgery was performed on the left hindleg of C57BL/6J male and female mice (Janvier, France) under 2% isoflurane anaesthesia. Skin on the lateral surface was incised between hip and knee followed by lengthwise division of the biceps femoris muscle leading to exposure of the three branches of the sciatic nerve. Sural branch was left intact, while the peroneal and tibial branches were ligated with a single surgical knot and axotomized distally of the ligation.
# Wounds were closed with surgical glue or medical clips and animals were monitored daily for signs of stress or discomfort, but in all cases recovered uneventfully.
# Induction of Diabetic neuropathy (STZ model).
# Diabetes was induced by a single i.p. injection of […] streptozocin (STZ) solution (100 μL/10 g, Sigma-Aldrich S0130, batch #WXBB7152V) in male seven-week-old C57BL/6J (Charles River) mice. Glycemia was tested before, and seven days after injection. All injected mice had blood glucose concentration >350 mg/dL from day seven and were used for analgesic testing of the compounds from day 14. One mouse had to be euthanized at seven days post injection. This experiment was performed by Phenotype Expertise, Marseilles, France - Pain and CNS behaviour CRO under supervision of Stéphane Gaillard, PhD (CEO).
# Induction of cancer induced bone pain (CIBP model).
# Osteosarcoma cell line NCTC 2472 (American Type Culture Collection, CCL-11TM) was cultured for two weeks prior to surgery in NCTC-135 medium (Sigma-Aldrich, Denmark) supplemented with sodium hydrogen carbonate and 10% equine serum (Sigma-Aldrich, Denmark). On the day of surgery, cells were washed with PBS and incubated with 3 mL trypsin-EDTA for five min followed by centrifugation (2800 rpm, 3 min). Supernatant was removed, and cell pellet resuspended in PBS to obtain a cell density of 10^7 cells/mL.
# Two separate cohorts of female C3H/HeNHsd mice (Envigo, Netherlands) of 7-8 weeks, were anaesthetized with 6.25 mg/kg xylazine (Rompun vet, 20 mg/mL, Bayer, KVP Pharma + Veterinär Produkte GmbH, Germany, Batch: KV02BHF) and 43.75 mg/kg ketamine (Ketaminol vet, 100 mg/mL, MSD Animal Health, AN Boxmeer, The Netherlands, Batch:
# A140A01) and received 1.0-1.2% isoflurane (1000 mg/g isoflurane, Attane vet, ScanVet, Piramal Critical Care Ltd., UK, Batch: G123J18B) during surgery. The mouse was placed on a 37 °C heating pad. Both hind legs were shaved, and a small horizontal incision was made under the knee followed by a vertical incision of approximately 0.5 cm until the patellar tendon was exposed. The patellar tendon was moved to the lateral side exposing the distal epiphysis of the femur. A hole was made in the middle of the distal epiphysis by gently pushing a 30 G needle (0.3x12 mm, 30 Gx1/2”, Luer-Lock, CHIRANA T. Injecta, CH30012) through the bone […]
# while rotating. […]
smiles,measurement,setting,value
"CCCCCCCCCCCCCC(=O)N(CCOCCOCCC(=O)N[C@@H](Cc1c[nH]cn1)C(=O)N[C@@H](Cc1c[nH]c2ccccc12)C(=O)N[C@@H](CC(C)C)C(=O)N[C@@H](CCCCN)C(=O)N[C@H](C(=O)O)C(C)C)CCOCCOCCC(=O)N[C@@H](Cc1c[nH]cn1)C(=O)N[C@@H](Cc1c[nH]c2ccccc12)C(=O)N[C@@H](CC(C)C)C(=O)N[C@@H](CCCCN)C(=O)N[C@H](C(=O)O)C(C)C [mPD5, myristoyl-NPEG4-(HWLKV)2]",effect on mechanical hypersensitivity (PWT),"SNI day 7, male mice, s.c. 2 μmol/kg",no significant effect
same,duration of significant reduction of mechanical hypersensitivity,"SNI day 7, male mice, s.c. 10 μmol/kg",up to 3 hours
same,"von Frey paw withdrawal threshold, individual animals (Fig 5B)","dose group 2, contra, BL",2 and 1.4 (4×) and 1
same,"von Frey paw withdrawal threshold, individual animals (Fig 5B)","dose group 2, contra, time 0",1.4 (2×) and 1 (4×)
same,"von Frey paw withdrawal threshold, individual animals (Fig 5B)","dose group 2, contra, time 1",1
same,"von Frey paw withdrawal threshold, individual animals (Fig 5B)","dose group 2, injured side, BL",2 (2×) and 1.4 (4×)
same,"von Frey paw withdrawal threshold, individual animals (Fig 5B)","dose group 2, injured side, time 0",0.07 (2×) and 0.16 (3×) and 0.4
same,"von Frey paw withdrawal threshold, individual animals (Fig 5B)","dose group 2, injured side, time 1",0.6 (2×) and 1 (3×) and 1.4
same,"von Frey paw withdrawal threshold, individual animals (Fig 5B)","dose group 10, contra, BL",1.4 (5×) and 1
same,"von Frey paw withdrawal threshold, individual animals (Fig 5B)","dose group 10, contra, time 0",1 (4×) and 1.4 (2×)
same,"von Frey paw withdrawal threshold, individual animals (Fig 5B)","dose group 10, contra, time 1",1 (3×) and 1.4 (3×)
same,"von Frey paw withdrawal threshold, individual animals (Fig 5B)","dose group 10, injured side, BL",1.4 (5×) and 1
same,"von Frey paw withdrawal threshold, individual animals (Fig 5B)","dose group 10, injured side, time 0",0.16 (2×) and 0.07 (3×) and 0.4
same,"von Frey paw withdrawal threshold, individual animals (Fig 5B)","dose group 10, injured side, time 1",1.4 (2×) and 1
same,"von Frey paw withdrawal threshold, individual animals (Fig 5B)","dose group 50, contra, BL",1.4 (4×) and 1 (2×)
same,"von Frey paw withdrawal threshold, individual animals (Fig 5B)","dose group 50, contra, time 0",1.4 (3×) and 1 (3×)
same,"von Frey paw withdrawal threshold, individual animals (Fig 5B)","dose group 50, contra, time 1",1.4 (4×) and 1 (2×)
same,"von Frey paw withdrawal threshold, individual animals (Fig 5B)","dose group 50, injured side, BL",1.4 (5×) and 1
same,"von Frey paw withdrawal threshold, individual animals (Fig 5B)","dose group 50, injured side, time 0",0.07 (2×) and 0.16 (2×) and 0.4 (2×)
same,"von Frey paw withdrawal threshold, individual animals (Fig 5B)","dose group 50, injured side, time 1",1 (3×) and 1.4 (2×) and 2
